# Reference: PubChem BioAssay (NCI)
#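 96-well plates; 48 h exposure; 5 concentrations. Endpoints by linear interpolation between flanking doses. Not reached: highest tested concentration assigned. TGI marks complete inhibition of growth.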
# Tests used:
# Assay in all cases: DTP human tumour cell line panel, 48 h
# [1] = test system: RXF 393 renal
# [2] = test system: NCI/ADR-RES ovarian
# [3] = test system: HCT-15 colon
# [4] = test system: SK-MEL-2 melanoma
# [5] = test system: KM12 colon
# [6] = test system: K-562 leukemia
# [7] = test system: OVCAR-3 ovarian
# [8] = test system: MALME-3M melanoma
# [9] = test system: 786-0 renal
# [10] = test system: UO-31 renal
# [11] = test system: SK-MEL-28 melanoma
# [12] = test system: SNB-19 CNS
# [13] = test system: RPMI-8226 leukemia
# [14] = test system: SNB-75 CNS
# [15] = test system: HS 578T breast
# [16] = test system: HOP-62 NSCLC
# [17] = test system: DU-145 prostate
# [18] = test system: CAKI-1 renal
# [19] = test system: BT-549 breast
# [20] = test system: HCC-2998 colon
# [21] = test system: COLO 205 colon
# [22] = test system: T-47D breast
# [23] = test system: PC-3 prostate
# [24] = test system: SF-539 CNS
# [25] = test system: IGROV1 ovarian
# [26] = test system: MDA-N
# [27] = test system: HT29 colon
# [28] = test system: ACHN renal
# [29] = test system: OVCAR-4 ovarian
# [30] = test system: SK-MEL-5 melanoma
# [31] = test system: OVCAR-8 ovarian
# [32] = test system: HOP-92 NSCLC
# [33] = test system: SF-295 CNS
# [34] = test system: UACC-257 melanoma
# [35] = test system: HL-60(TB) leukemia
# [36] = test system: EKVX NSCLC
# [37] = test system: SW-620 colon
# [38] = test system: M14 melanoma
# [39] = test system: A498 renal
# [40] = test system: A549 NSCLC
# [41] = test system: MDA-MB-231 breast
# [42] = test system: SF-268 CNS
# [43] = test system: SK-OV-3 ovarian
# [44] = test system: U251 CNS
# [45] = test system: HCT-116 colon
# [46] = test system: MCF7 breast
# [47] = test system: MOLT-4 leukemia
# [48] = test system: NCI-H226 lung
# [49] = test system: CCRF-CEM leukemia
# [50] = test system: SN12C renal
# [51] = test system: NCI-H522 lung
# [52] = test system: OVCAR-5 ovarian
# [53] = test system: NCI-H23 lung
# [54] = test system: UACC-62 melanoma
# [55] = test system: TK-10 renal
# [56] = test system: NCI-H460 lung
# [57] = test system: MDA-MB-435
# [58] = test system: LOX IMVI melanoma
# [59] = test system: SR leukemia
smiles,measurement,setting,value
C=CCc1[nH]c2c(OCc3ccccc3)cc(N(CC=C)C(C)=O)cc2c1C,TGI,[1],26.7 µM
same,TGI,[2],31 µM
same,TGI,[3],25.6 µM
same,TGI,[4],26.1 µM
same,TGI,[5],30.1 µM
same,TGI,[6],> 100 µM
same,TGI,[7],29.6 µM
same,TGI,[8],30.4 µM
same,TGI,[9],28 µM
same,TGI,[10],21.3 µM
same,TGI,[11],33.5 µM
same,TGI,[12],25.3 µM
same,TGI,[13],67.6 µM
same,TGI,[14],23.4 µM
same,TGI,[15],30.8 µM
same,TGI,[16],36.7 µM
same,TGI,[17],27.8 µM
same,TGI,[18],29.9 µM
same,TGI,[19],29.3 µM
same,TGI,[20],28.4 µM
same,TGI,[21],30.1 µM
same,TGI,[22],26.4 µM
same,TGI,[23],20.2 µM
same,TGI,[24],32 µM
same,TGI,[25],28 µM
same,TGI,[26],27.9 µM
same,TGI,[27],20.5 µM
same,TGI,[28],25.3 µM
same,TGI,[29],23.6 µM
same,TGI,[30],24 µM
same,TGI,[31],27.4 µM
same,TGI,[32],25.7 µM
same,TGI,[33],33.5 µM
same,TGI,[34],30.6 µM
same,TGI,[35],39.9 µM
same,TGI,[36],21 µM
same,TGI,[37],32.2 µM
same,TGI,[38],21.8 µM
same,TGI,[39],25 µM
same,TGI,[40],26.2 µM
same,TGI,[41],23.2 µM
same,TGI,[42],24.6 µM
same,TGI,[43],31.9 µM
same,TGI,[44],25.3 µM
same,TGI,[45],24.8 µM
same,TGI,[46],24.9 µM
same,TGI,[47],30.7 µM
same,TGI,[48],37.2 µM
same,TGI,[49],75.9 µM
same,TGI,[50],32 µM
same,TGI,[51],26.5 µM
same,TGI,[52],27.2 µM
same,TGI,[53],26.8 µM
same,TGI,[54],26.9 µM
same,TGI,[55],30 µM
same,TGI,[56],27.9 µM
same,TGI,[57],33.5 µM
same,TGI,[58],25 µM
COc1cc(/C=C2/SC(c3ccccc3)N(Cc3ccccc3)C2=O)cc(OC)c1OC (stereo unspecified),TGI,[1],72.3 µM
same,TGI,[2],> 100 µM
same,TGI,[3],> 100 µM
same,TGI,[4],> 100 µM
same,TGI,[5],> 100 µM
same,TGI,[6],> 100 µM
same,TGI,[7],> 100 µM
same,TGI,[8],> 100 µM
same,TGI,[9],> 100 µM
same,TGI,[10],> 100 µM
same,TGI,[11],> 100 µM
same,TGI,[12],> 100 µM
same,TGI,[13],75.1 µM
same,TGI,[15],> 100 µM
same,TGI,[16],> 100 µM
same,TGI,[17],> 100 µM
same,TGI,[18],> 100 µM
same,TGI,[19],> 100 µM
same,TGI,[20],> 100 µM
same,TGI,[21],45.9 µM
same,TGI,[22],> 100 µM
same,TGI,[26],> 100 µM
same,TGI,[27],> 100 µM
same,TGI,[28],> 100 µM
same,TGI,[29],> 100 µM
same,TGI,[30],28 µM
same,TGI,[31],> 100 µM
same,TGI,[32],> 100 µM
same,TGI,[33],> 100 µM
same,TGI,[34],> 100 µM
same,TGI,[36],> 100 µM
same,TGI,[37],> 100 µM
same,TGI,[38],> 100 µM
same,TGI,[59],45.1 µM
same,TGI,[39],> 100 µM
same,TGI,[40],> 100 µM
same,TGI,[41],> 100 µM
same,TGI,[42],> 100 µM
same,TGI,[43],> 100 µM
same,TGI,[44],> 100 µM
same,TGI,[45],> 100 µM
same,TGI,[46],> 100 µM
same,TGI,[47],63.2 µM
same,TGI,[48],> 100 µM
same,TGI,[50],> 100 µM
same,TGI,[51],63 µM
same,TGI,[52],> 100 µM
same,TGI,[53],> 100 µM
same,TGI,[54],> 100 µM
same,TGI,[55],> 100 µM
same,TGI,[56],> 100 µM
same,TGI,[57],> 100 µM
same,TGI,[58],> 100 µM
